Experimental findings from patent publication US20240092784A1, “CONDENSED HETEROCYCLIC COMPOUND” (NISSAN CHEMICAL CORPORATION, priority 2020, published 2024) are described below.

Structures can show the parent of a compound that is named as a salt.

human SPR, sequence (P35270 whole entry): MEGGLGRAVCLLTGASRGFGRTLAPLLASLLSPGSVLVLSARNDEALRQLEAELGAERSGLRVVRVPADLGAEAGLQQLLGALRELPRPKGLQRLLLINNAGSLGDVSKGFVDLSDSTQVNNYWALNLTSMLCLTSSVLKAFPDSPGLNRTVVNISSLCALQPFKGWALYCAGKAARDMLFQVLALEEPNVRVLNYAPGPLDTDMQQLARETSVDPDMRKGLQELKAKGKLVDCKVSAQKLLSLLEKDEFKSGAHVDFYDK

One assay concerns the target human SPR (Homo sapiens (Human), UniProt P35270). The assay can be described thus: Evaluation Example 2: Measurement of human SPR inhibitory activity (seven concentrations, sepiapterin absorbance at 420 nm). The assay is classed as biochemical. The following applies: Evaluation Example 2, seven concentrations 0.14 nM to 100 nM, 240 minutes at room temperature, read-out: IC50. In short, it runs like this: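 Reactions ran 240 min at room temperature in 100 mM Tris-HCl pH 7.5 with 0.01% BSA. They contained tag-cleaved, E. coli-expressed full-length human SPR (diluted to 150 ng/mL), seven compound concentrations from 0.14 to 100 nM, and sepiapterin/NADPH added as a 120 μM/160 μM solution. Inhibition was calculated from sepiapterin absorbance at 420 nm.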
As for `COCCN(C)C(=O)/C=C/c1cnn2c(O)c(C(=O)NC3CC3)c(=O)n(CC(C)C)c12` [compound 519, (E)-N-Cyclopropyl-7-hydroxy-4-isobutyl-3-(3-((2-methoxyethyl)(methyl)amino)-3-oxoprop-1-en-1-yl)-5-oxo-4,5-dihydropyrazolo[1,5-a]pyrimidine-6-carboxamide], the IC50 was found to be 0.68 nM.

Turning to `C/C(=C\c1cnn2c(O)c(C(=O)NC3CC3)c(=O)n(CC(C)C)c12)C(=O)N1CCC(F)(F)CC1` [Synthesis Example 253, (E)-N-Cyclopropyl-3-(3-(4,4-difluoropiperidin-1-yl)-2-methyl-3-oxoprop-1-en-1-yl)-7-hydroxy-4-isobutyl-5-oxo-4,5-dihydropyrazolo[1,5-a]pyrimidine-6-carboxamide], the IC50 was found to be 0.85 nM.

Consider `CCN(CC)C(=O)/C=C/c1cnn2c(O)c(C(=O)NC3CC3)c(=O)n(CC(C)C)c12` [compound 504, (E)-N-Cyclopropyl-3-(3-(diethylamino)-3-oxoprop-1-en-1-yl)-7-hydroxy-4-isobutyl-5-oxo-4,5-dihydropyrazolo[1,5-a]pyrimidine-6-carboxamide], for which the IC50 amounted to 0.84 nM.

`CC(C)Cn1c(=O)c(C(=O)NC2CC2)c(O)n2nc(N)c(/C=C/C(C)(C)C)c12` [Synthesis Example 439, (E)-2-Amino-N-cyclopropyl-3-(3,3-dimethylbut-1-en-1-yl)-7-hydroxy-4-isobutyl-5-oxo-4,5-dihydropyrazolo[1,5-a]pyrimidine-6-carboxamide hydrochloride]: the IC50 stood at 1.61 nM.

Regarding `C/C(=C\c1cnn2c(O)c(C(=O)NC3CC3)c(=O)n(CC(C)C)c12)C(=O)N1CCOCC1` [Synthesis Example 254, (E)-N-Cyclopropyl-7-hydroxy-4-isobutyl-3-(2-methyl-3-morpholino-3-oxoprop-1-en-1-yl)-5-oxo-4,5-dihydropyrazolo[1,5-a]pyrimidine-6-carboxamide], the IC50 is 0.84 nM.

With `Cc1cnc(-c2cc3n(CC(C)(C)C)c(=O)c(C(=O)NC4CC4)c(O)n3n2)cn1` [Synthesis Example 303, N-Cyclopropyl-7-hydroxy-2-(5-methylpyrazin-2-yl)-4-neopentyl-5-oxo-4,5-dihydropyrazolo[1,5-a]pyrimidine-6-carboxamide], the IC50 was determined as 2.58 nM.

Staying with this assay, now noted: sepiapterin absorbance, Table 41, read-out: concentration at 50% inhibition of human SPR (IC50).
On to `Cc1nn2c(O)c(C(=O)NC3CC3)c(=O)n(CC(C)C)c2c1/C=C/C(=O)N1CCC[C@@H]1C#N` [Synthesis Example 749, (R,E)-3-(3-(2-Cyanopyrrolidin-1-yl)-3-oxoprop-1-en-1-yl)-N-cyclopropyl-7-hydroxy-4-isobutyl-2-methyl-5-oxo-4,5-dihydropyrazolo[1,5-a]pyrimidine-6-carboxamide], for which the IC50 stood at 0.93 nM.

As to `Cc1nn2c(O)c(C(=O)NC3CC3)c(=O)n(CC(C)C)c2c1/C=C/C(=O)N1CC[C@H](C#N)C1` [Synthesis Example 688, (S,E)-3-(3-(3-Cyanopyrrolidin-1-yl)-3-oxoprop-1-en-1-yl)-N-cyclopropyl-7-hydroxy-4-isobutyl-2-methyl-5-oxo-4,5-dihydropyrazolo[1,5-a]pyrimidine-6-carboxamide], the IC50 was 0.91 nM.

In the case of `CC(C)Cn1c(=O)c(C(=O)NC2CC2)c(O)n2ncc(/C=C/C(=O)N3CCC[C@H]3c3ccccc3)c12` [Synthesis Example 727, (S,E)-N-Cyclopropyl-7-hydroxy-4-isobutyl-5-oxo-3-(3-oxo-3-(2-phenylpyrrolidin-1-yl)prop-1-en-1-yl)-4,5-dihydropyrazolo[1,5-a]pyrimidine-6-carboxamide], the IC50 came to 1.34 nM.

For `Cc1nn2c(O)c(C(=O)NC3CC3)c(=O)n(CC(C)C)c2c1/C=C/C(=O)N1CCN(C2CC(F)(F)C2)C[C@H]1C` [Synthesis Example 697, (R,E)-N-Cyclopropyl-3-(3-(4-(3,3-difluorocyclobutyl)-2-methylpiperazin-1-yl)-3-oxoprop-1-en-1-yl)-7-hydroxy-4-isobutyl-2-methyl-5-oxo-4,5-dihydropyrazolo[1,5-a]pyrimidine-6-carboxamide], the IC50 is 1.22 nM.
